# Results from US9302999B2, “Substituted triazoles as herbicides” (E. I. DU PONT DE NEMOURS AND COMPANY, priority 2012, dated 2016).
# Where two headings read alike, the source gives them in different places.
# Columns and labels:
# Type in all cases: in vivo
# [1] = system: crabgrass, large (large crabgrass, Digitaria sanguinalis); assay: Test A pre-/postemergence: crabgrass, large; conditions: for pest or weed control at 125 g/ha / pest or weed control at 500 g/ha: Digitaria sanguinalis, 240 h
# Procedure, shortened: (§1)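 Soil medium was loam blended with sand; treatments pre- and postemergence were applied concurrently, postemergence at one- to two-leaf stage. Approximately ten days in greenhouse preceded visual comparison with untreated controls, scored 0 (no effect) to 100 (complete control).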
# corn (Zea mays) = assay: Test C pre-/postemergence: corn; conditions: Postemergence
# Procedure, shortened: (§2)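 Visual injury scored 0–100 (100 = complete control) against untreated controls after 13–15 greenhouse days. Surfactant-containing solvent formulations applied either to soil after sowing (loam/sand) or over 1- to 4-leaf plants, 2–18 cm tall.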
# [2] = system: johnsongrass (Sorghum halepense); assay: Test C pre-/postemergence: johnsongrass; conditions: Postemergence
# Source text: (§3) Seeds of plant species selected from blackgrass (Alopecurus myosuroides), bromegrass, downy (downy bromegrass, Bromus tectorum), foxtail, green (green foxtail, Setaria viridis), ryegrass, Italian (Italian ryegrass, Lolium multiflorum), winter wheat (Triticum aestivum), wild oat (Avena fatua), galium (catchweed bedstraw, Galium aparine), bermudagrass (Cynodon dactylon), surinam grass (Brachiaria decumbens), cocklebur (common cocklebur, Xanthium strumarium), corn (Zea mays), large crabgrass (Digitaria sanguinalis), woolly cupgrass (Eriochloa villosa), foxtail, giant (giant foxtail, Setaria faberii), goosegrass (Eleusine indica), johnsongrass (Sorghum halepense), kochia (Kochia scoparia), lambsquarters (Chenopodium album), morningglory (Ipomoea coccinea), nightshade (eastern black nightshade, Solanum ptycanthum), nutsedge, yellow (yellow nutsedge, Cyperus esculentus), pigweed (Amaranthus retroflexus), ragweed (common ragweed, Ambrosia elation), soybean (Glycine max), common (oilseed) sunflower (Helianthus annuus), Russian thistle (Salsola kali) and velvetleaf (Abutilon theophrasti) were planted into a blend of loam soil and sand and treated preemergence with test chemicals formulated in a non-phytotoxic solvent mixture which included a surfactant.
# (§4) At the same time, plants selected from these crop and weed species and also barley (winter barley, Hordeum vulgare), canarygrass (Phalaris minor), chickweed (common chickweed, Stellaria media) windgrass (Apera spica-venti) and deadnettle (henbit deadnettle, Lamium amplexicaule) were planted in pots containing Redi-Earth® planting medium (Scotts Company, 14111 Scottslawn Road, Marysville, Ohio 43041) comprising spaghnum peat moss, vermiculite, wetting agent and starter nutrients and treated with postemergence applications of test chemicals formulated in the same manner. Plants ranged in height from 2 to 18 cm (1- to 4-leaf stage) for postemergence treatments.
# (§5) Treated plants and controls were maintained in a greenhouse for 13 to 15 days, after which time all species were compared to controls and visually evaluated. Plant response ratings, summarized in Table C, are based on a scale of 0 to 100 where 0 is no effect and 100 is complete control. A dash (-) response means no test result.
# [3] = system: galium (catchweed bedstraw, Galium aparine); assay: Test C pre-/postemergence: galium
# Source text: as §3, §4, §5
# [4] = system: velvetleaf (Abutilon theophrasti); assay: Test A pre-/postemergence: velvetleaf; conditions: for pest or weed control at 125 g/ha / pest or weed control at 500 g/ha: Abutilon theophrasti, 240 h
# Procedure, shortened: as §1
# [5] = system: lambsquarters (Chenopodium album); assay: Test C pre-/postemergence: lambsquarters; conditions: Postemergence
# Procedure, shortened: as §2
# soybean (Glycine max) = assay: Test C pre-/postemergence: soybean; conditions: Postemergence
# Source text: as §3, §4, §5
# [6] = system: chickweed (common chickweed, Stellaria media); assay: Test C postemergence: chickweed
# Source text: as §4, §5
# [7] = system: pigweed (Amaranthus retroflexus); assay: Test C pre-/postemergence: pigweed; conditions: Postemergence
# Source text: as §3, §4, §5
# kochia (Kochia scoparia) = assay: Test C pre-/postemergence: kochia; conditions: Postemergence
# Source text: as §3, §4, §5
# wild oat (Avena fatua) = assay: Test C pre-/postemergence: wild oat
# Procedure, shortened: as §2
# [8] = system: foxtail, giant (giant foxtail, Setaria faberii); assay: Test A pre-/postemergence: foxtail, giant; conditions: for pest or weed control at 125 g/ha / pest or weed control at 500 g/ha: Setaria faberi, 240 h
# Procedure, shortened: as §1
# [9] = 31 g ai/ha, scale 0 to 100 (0 no effect, 100 complete control)
# [10] = 62 g ai/ha, scale 0 to 100 (0 no effect, 100 complete control)
# [11] = 125 g ai/ha, scale 0 to 100, 0 no effect, 100 complete control
# [12] = Postemergence, 31 g ai/ha, scale 0 to 100 (0 no effect, 100 complete control)
# [13] = Postemergence, 62 g ai/ha, scale 0 to 100 (0 no effect, 100 complete control)
# [14] = Postemergence, 125 g ai/ha, scale 0 to 100, 0 no effect, 100 complete control
# [15] = Postemergence, 250 g ai/ha, scale 0 to 100
# [16] = Preemergence, 31 g ai/ha, scale of 0 to 100, 0 is no effect, 100 is complete control
# [17] = Preemergence, 62 g ai/ha, scale of 0 to 100, 0 is no effect, 100 is complete control
# [18] = Preemergence, 125 g ai/ha, scale 0 to 100, 0 no effect, 100 complete control
# [19] = Preemergence, 250 g ai/ha, scale 0 to 100, 0 no effect, 100 complete control
# [20] = Postemergence, 125 g ai/ha, 0 to 100 scale, 0 is no effect, 100 is complete control
# [21] = Postemergence, 500 g ai/ha, visual rating on 0 to 100 scale (0 no effect, 100 complete control), approximately ten days
# [22] = Preemergence, 125 g ai/ha, 0 to 100 scale where 0 is no effect and 100 is complete control
# [23] = Preemergence, 500 g ai/ha, 0 to 100 scale (0 no effect, 100 complete control)
compound,measurement,setting,value
"Cc1nn(-c2ccc(F)cc2)nc1Cc1ccnc(C(F)(F)F)c1 [Compound 16, 4-[[2-(4-fluorophenyl)-5-methyl-2H-1,2,3-triazol-4-yl]methyl]-2-(trifluoromethyl)pyridine]",pest or weed control at 125 g/ha,"[1]; post-emergence, Postemergence, 125 g ai/ha, 0 to 100 scale, 0 is no effect, 100 is complete control, read-out: Crabgrass, Large plant response rating",90%
same,pest or weed control at 500 g/ha,"[1]; post-emergence, Postemergence, 500 g ai/ha, visual rating on 0 to 100 scale (0 no effect, 100 complete control), approximately ten days, read-out: Crabgrass, Large plant response rating",90%
same,pest or weed control at 125 g/ha,"[1]; pre-emergence, Preemergence, 125 g ai/ha, 0 to 100 scale (0 no effect, 100 complete control), read-out: Plant response rating, Crabgrass, Large",90%
same,pest or weed control at 500 g/ha,"[1]; pre-emergence, Preemergence, 500 g ai/ha, 0 to 100 scale, 0 is no effect, 100 is complete control, read-out: Plant response rating, Crabgrass, Large",100%
same,"Plant response rating, Corn",corn (Zea mays); [9],5
same,"Plant response rating, Corn",corn (Zea mays); [10],15
same,"Plant response rating, Corn",corn (Zea mays); [11],15
same,"Plant response rating, Corn","corn (Zea mays); 250 g ai/ha, scale 0 to 100",15
same,"Plant response rating, Johnsongrass",[2]; [9],0
same,"Plant response rating, Johnsongrass",[2]; [10],0
same,"Plant response rating, Johnsongrass",[2]; [11],45
same,"Plant response rating, Johnsongrass","[2]; 250 g ai/ha, scale 0 to 100",45
same,"Plant response rating, Galium",[3]; [12],60
same,"Plant response rating, Galium",[3]; [13],65
same,"Plant response rating, Galium",[3]; [14],80
same,"Plant response rating, Galium",[3]; [15],90
same,"Plant response rating, Galium",[3]; [16],100
same,"Plant response rating, Galium",[3]; [17],100
same,"Plant response rating, Galium",[3]; [18],100
same,"Plant response rating, Galium",[3]; [19],100
same,pest or weed control at 125 g/ha,"[4]; post-emergence, Postemergence, 125 g ai/ha, 0 to 100 scale, 0 is no effect, 100 is complete control, read-out: Velvetleaf plant response rating",100%
same,pest or weed control at 500 g/ha,"[4]; post-emergence, Postemergence, 500 g ai/ha, visual rating on 0 to 100 scale (0 no effect, 100 complete control), approximately ten days, read-out: Velvetleaf plant response rating",100%
same,pest or weed control at 125 g/ha,"[4]; pre-emergence, Preemergence, 125 g ai/ha, 0 to 100 scale (0 no effect, 100 complete control), read-out: Plant response rating, Velvetleaf",30%
same,pest or weed control at 500 g/ha,"[4]; pre-emergence, Preemergence, 500 g ai/ha, 0 to 100 scale, 0 is no effect, 100 is complete control, read-out: Plant response rating, Velvetleaf",80%
same,"Plant response rating, Lambsquarters",[5]; [9],95
same,"Plant response rating, Lambsquarters",[5]; [10],100
same,"Plant response rating, Lambsquarters",[5]; [11],100
same,"Plant response rating, Lambsquarters","[5]; 250 g ai/ha, scale 0 to 100",100
same,"Plant response rating, Soybean",soybean (Glycine max); [9],20
same,"Plant response rating, Soybean",soybean (Glycine max); [10],25
same,"Plant response rating, Soybean",soybean (Glycine max); [11],35
same,"Plant response rating, Soybean","soybean (Glycine max); 250 g ai/ha, scale 0 to 100",35
same,"Plant response rating, Chickweed",[6]; [9],85
same,"Plant response rating, Chickweed",[6]; [10],98
same,"Plant response rating, Chickweed",[6]; [11],100
same,"Plant response rating, Chickweed","[6]; 250 g ai/ha, scale 0 to 100",100
same,"Plant response rating, Pigweed",[7]; [9],75
same,"Plant response rating, Pigweed",[7]; [10],95
same,"Plant response rating, Pigweed",[7]; [11],100
same,"Plant response rating, Pigweed","[7]; 250 g ai/ha, scale 0 to 100",100
same,"Plant response rating, Kochia",kochia (Kochia scoparia); [9],95
same,"Plant response rating, Kochia",kochia (Kochia scoparia); [10],98
same,"Plant response rating, Kochia",kochia (Kochia scoparia); [11],98
same,"Plant response rating, Kochia","kochia (Kochia scoparia); 250 g ai/ha, scale 0 to 100",98
same,"Plant response rating, Oat, Wild",wild oat (Avena fatua); [12],5
same,"Plant response rating, Oat, Wild",wild oat (Avena fatua); [13],10
same,"Plant response rating, Oat, Wild",wild oat (Avena fatua); [14],20
same,"Plant response rating, Oat, Wild",wild oat (Avena fatua); [15],80
same,"Plant response rating, Oat, Wild",wild oat (Avena fatua); [16],98
same,"Plant response rating, Oat, Wild",wild oat (Avena fatua); [17],100
same,"Plant response rating, Oat, Wild",wild oat (Avena fatua); [18],100
same,"Plant response rating, Oat, Wild",wild oat (Avena fatua); [19],100
same,pest or weed control at 125 g/ha,"[8]; post-emergence, Postemergence, 125 g ai/ha, 0 to 100 scale, 0 is no effect, 100 is complete control, read-out: Foxtail, Giant plant response rating",90%
same,pest or weed control at 500 g/ha,"[8]; post-emergence, Postemergence, 500 g ai/ha, visual rating on 0 to 100 scale (0 no effect, 100 complete control), approximately ten days, read-out: Foxtail, Giant plant response rating",90%
same,pest or weed control at 125 g/ha,"[8]; pre-emergence, Preemergence, 125 g ai/ha, 0 to 100 scale (0 no effect, 100 complete control), read-out: Plant response rating, Foxtail, Giant",100%
same,pest or weed control at 500 g/ha,"[8]; pre-emergence, Preemergence, 500 g ai/ha, 0 to 100 scale, 0 is no effect, 100 is complete control, read-out: Plant response rating, Foxtail, Giant",100%
Cc1nn(-c2ccnc(C(F)(F)F)c2)nc1Cc1ccnc(C(F)(F)F)c1 [Compound 137],"Crabgrass, Large plant response rating",[1]; [20],90
same,"Crabgrass, Large plant response rating",[1]; [21],90
same,"Plant response rating, Crabgrass, Large",[1]; [22],90
same,"Plant response rating, Crabgrass, Large",[1]; [23],90
same,"Plant response rating, Johnsongrass",[2]; [9],5
same,"Plant response rating, Johnsongrass",[2]; [10],40
same,"Plant response rating, Johnsongrass",[2]; [11],80
same,"Plant response rating, Johnsongrass","[2]; 250 g ai/ha, scale 0 to 100",90
same,"Plant response rating, Galium",[3]; [12],45
same,"Plant response rating, Galium",[3]; [13],70
same,"Plant response rating, Galium",[3]; [14],70
same,"Plant response rating, Galium",[3]; [15],70
same,"Plant response rating, Velvetleaf",[4]; [20],80
same,Velvetleaf plant response rating,[4]; [21],100
same,"Plant response rating, Velvetleaf",[4]; [22],20
same,"Plant response rating, Velvetleaf",[4]; [23],20
same,"Plant response rating, Lambsquarters",[5]; [9],100
same,"Plant response rating, Lambsquarters",[5]; [10],100
same,"Plant response rating, Lambsquarters",[5]; [11],100
same,"Plant response rating, Lambsquarters","[5]; 250 g ai/ha, scale 0 to 100",100
same,"Plant response rating, Soybean",soybean (Glycine max); [9],40
same,"Plant response rating, Soybean",soybean (Glycine max); [10],55
same,"Plant response rating, Soybean",soybean (Glycine max); [11],55
same,"Plant response rating, Soybean","soybean (Glycine max); 250 g ai/ha, scale 0 to 100",60
same,"Plant response rating, Chickweed",[6]; [9],70
same,"Plant response rating, Chickweed",[6]; [10],80
same,"Plant response rating, Chickweed",[6]; [11],98
same,"Plant response rating, Chickweed","[6]; 250 g ai/ha, scale 0 to 100",98
same,"Plant response rating, Pigweed",[7]; [9],98
same,"Plant response rating, Pigweed",[7]; [10],100
same,"Plant response rating, Pigweed",[7]; [11],100
same,"Plant response rating, Pigweed","[7]; 250 g ai/ha, scale 0 to 100",100
same,"Plant response rating, Kochia",kochia (Kochia scoparia); [9],90
same,"Plant response rating, Kochia",kochia (Kochia scoparia); [10],90
same,"Plant response rating, Kochia",kochia (Kochia scoparia); [11],90
same,"Plant response rating, Kochia","kochia (Kochia scoparia); 250 g ai/ha, scale 0 to 100",90
same,"Plant response rating, Oat, Wild",wild oat (Avena fatua); [12],45
same,"Plant response rating, Oat, Wild",wild oat (Avena fatua); [13],50
same,"Plant response rating, Oat, Wild",wild oat (Avena fatua); [14],50
same,"Plant response rating, Oat, Wild",wild oat (Avena fatua); [15],70
same,"Foxtail, Giant plant response rating",[8]; [20],90
same,"Foxtail, Giant plant response rating",[8]; [21],90
same,"Plant response rating, Foxtail, Giant",[8]; [22],90
same,"Plant response rating, Foxtail, Giant",[8]; [23],90
